“Also recorded” adds a separate entry of the source.
Legend:
[1] = test system: PI3-K in BT20 cells (phosphorylation of AKT at serine 473); assay: PI3-Kα Cellular Assay (AKT Ser473 phosphorylation ELISA in BT20 cells); assay type: cell-based, human; details: Homo sapiens, BT-20, pAKT Ser473 ELISA, 1 hour incubation
Method in brief: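 Cells seeded overnight in 0.5% FBS, then exposed 1 h at 37 °C to an 11-concentration 1:3 dilution series, in duplicate.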

SKOV3 tumor model = assay: Mouse xenograft efficacy study, SKOV3; assay type: in vivo; details: for Growth Inhibition (%): SKOV3 ovarian xenograft
Description: The in vivo efficacy of 2-amino-8-(trans-4-hydroxycyclohexyl)-6-(6-methoxypyridin-3-yl)-4-methylpyrido[2,3-d]pyrimidin-7(8H)-one (Compound 152) disclosed in Example 53 was examined in s.c. xenograft model. Human tumor cell lines PC3 (PTEN deletion)), U87MG (PTEN deletion) and SKOV3 (PI3Kα […]) were chosen for in vivo efficacy studies due to their different genetic background and relatively high levels of phospho AKT S473 signal. Cells were implanted in the hind flank of athymic mice and tumors grew in size to 100-200 mm^3 before daily oral treatment with Compound 152 was initiated. […] For all models tested 1 mg/kg was an efficacious dose.
Animal Care: Female and male athymic mice (6-8 weeks old) weighing ˜22 g were obtained from Charles River Laboratory. Animal were housed on a 12 h light/dark cycle in the Pfizer vivarium and all procedures are conducted in accordance with the Pfizer Institutional Animal Care and Use Committee (IACUC). Animals are provided free access to rodent chow and water ad libitum and maintained under clean room conditions. Prior to study start animals acclimate for at least 48 h.
Cell lines: All cell lines were cultured at 37° C. in humidified 5% CO2 incubator. U87 MG glioblastoma tumor cell line was obtained from American Type Culture Collection (ATCC) and cultured with DMEM supplemented with 15% FBS and 2 mM glutamine. PC3 prostate cancer cell line were obtained from National Cancer Institute and cultured in RPMI media supplemented with 10% FBS and 2 mM glutamine. SKOV3 ovarian cancer cells were obtained from ATCC and passaged multiple times through mice, and cultured in McCoy's 5A media supplemented with 10% FBS and 2 mM glutamine. All cell lines were tested by University of Missouri Research Animal Diagnostic Laboratory for known species of murine viruses and mycoplasma contamination.
Mouse Xenograft Models: U87MG (glioblastoma), PC3 (prostate cancer) and SKOV3 (ovarian cancer) cell lines in culture were harvested by trypsinisation. Briefly, 2.5−4×10^6 tumor cells were suspended in the medium used to culture each cell line without serum and implanted sub-cutaneously (s.c) into the hind flank region of mice on day 0. Daily treatment with Compound 152, formulated in 10% ethanol, 40% PEG and 50% sodium citrate buffer or vehicle alone commenced 10-14 d after implantation when average tumors were 100-200 mm^3 in size. Tumors were measured twice weekly and tumor volume was calculated as a product of (length×width^2)/2. Studies were typically terminated when the tumor in the vehicle treated animals reached a size of >1500 mm3 or when judged to adversely affect the well being of the animal. […] Where applicable, percent tumor regression for each group was calculated as 100×(tumor volumeinitial−tumor volumefinal)/(tumor volumeinitial). A cohort of 12 animals was used for each dose group for efficacy studies. A representative cohort of animals were sacrificed at the times indicated, tumors resected, and a blood sample taken from the cardiac left ventricle and immediately placed in a vial primed with heparin sulfate. Typically one half of the tumor was fixed in 10% neutral buffered formalin, paraffin embedded, and sectioned for immunohistochemistry. The other half was frozen in liquid nitrogen and later processed to generate cell lysates for target modulation studies.

[2] = SKOV3 tumor model, daily oral treatment

- IC50 [1]: 3.6 nM
SMILES: COc1ccc(-c2cc3c(C)nc(N)nc3n([C@H]3CC[C@H](O)CC3)c2=O)cn1 [Compound 152, 2-amino-8-(trans-4-hydroxycyclohexyl)-6-(6-methoxypyridin-3-yl)-4-methylpyrido[2,3-d]pyrimidin-7(8H)-one]
- Growth Inhibition (%) (SKOV3 tumor model; 0.5 mg/kg/day oral): 46%
- Growth Inhibition (%) (SKOV3 tumor model; 1 mg/kg/day oral): 66%
- Growth Inhibition (%) (SKOV3 tumor model; 2 mg/kg/day oral): 82%
- anti-tumor efficacy (SKOV3 tumor model; [2]): dose-dependent anti-tumor efficacy; also recorded: growth inhibition
- efficacious dose (SKOV3 tumor model; [2]): 1 mg/kg

Source: US8633204B2 (Pfizer Inc., priority 2006, dated 2014)
